Assay results published in PubChem BioAssay AID248 (DTP/NCI, 2004).
Toxic doses and inconclusive results are not listed. Rule as the data show it: active = T/C of 150% or more; inactive = T/C below 125%.

Tested on: L1210 leukemia ip in BDF1 mice, survival T/C
Test: NCI In Vivo Anticancer Drug Screen. Data for tumor model L1210 Leukemia (intraperitoneal) in B6D2F1 (BDF1) mice
Details: endpoint: mean survival time, higher = longer survival
Summary of the method: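 Each compound was tested against a transplantable tumor grown in mice. The endpoint was survival, with treated animals benchmarked against vehicle controls as a simple ratio.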

[1] = dose: 100.0 mg/kg/injection, schedule: Q01DX001 (ip), vehicle: carboxymethylcellulose (CMC)
[2] = dose: 200.0 mg/kg/injection, schedule: Q01DX001 (ip), vehicle: carboxymethylcellulose (CMC)
[3] = dose: 400.0 mg/kg/injection, schedule: Q01DX001 (ip), vehicle: carboxymethylcellulose (CMC)
[4] = dose: 100.0 mg/kg/injection, schedule: Q01DX001 (ip), vehicle: saline
[5] = dose: 100.0 mg/kg/injection, schedule: Q04DX003 (ip), vehicle: Klucel (hydroxypropylcellulose) (HPC)
[6] = dose: 200.0 mg/kg/injection, schedule: Q01DX001 (ip), vehicle: saline
[7] = dose: 400.0 mg/kg/injection, schedule: Q01DX001 (ip), vehicle: saline
[8] = dose: 50.0 mg/kg/injection, schedule: Q01DX009 (ip), vehicle: saline with Tween-80
[9] = dose: 100.0 mg/kg/injection, schedule: Q01DX009 (ip), vehicle: saline with Tween-80
[10] = dose: 200.0 mg/kg/injection, schedule: Q01DX009 (ip), vehicle: saline with Tween-80
[11] = dose: 400.0 mg/kg/injection, schedule: Q01DX009 (ip), vehicle: saline with Tween-80
[12] = dose: 100.0 mg/kg/injection, schedule: Q04DX003 (ip), vehicle: other
[13] = dose: 100.0 mg/kg/injection, schedule: Q04DX003 (ip), vehicle: saline
[14] = dose: 200.0 mg/kg/injection, schedule: Q04DX003 (ip), vehicle: other
[15] = dose: 200.0 mg/kg/injection, schedule: Q04DX003 (ip), vehicle: saline
[16] = dose: 400.0 mg/kg/injection, schedule: Q04DX003 (ip), vehicle: other
[17] = dose: 100.0 mg/kg/injection, schedule: Q04DX003 (ip), vehicle: saline with Tween-80
[18] = dose: 200.0 mg/kg/injection, schedule: Q04DX003 (ip), vehicle: saline with Tween-80
[19] = dose: 400.0 mg/kg/injection, schedule: Q04DX003 (ip), vehicle: saline with Tween-80
[20] = dose: 100.0 mg/kg/injection, schedule: Q01DX009 (ip), vehicle: Klucel (hydroxypropylcellulose) (HPC)
[21] = dose: 200.0 mg/kg/injection, schedule: Q01DX009 (ip), vehicle: Klucel (hydroxypropylcellulose) (HPC)
[22] = dose: 200.0 mg/kg/injection, schedule: Q04DX003 (ip), vehicle: Klucel (hydroxypropylcellulose) (HPC)
[23] = dose: 100.0 mg/kg/injection, schedule: Q04DX002 (ip), vehicle: Klucel (hydroxypropylcellulose) (HPC)
[24] = dose: 200.0 mg/kg/injection, schedule: Q04DX002 (ip), vehicle: Klucel (hydroxypropylcellulose) (HPC)

Measured: T/C

O=C(CCCC(=O)N=Nc1c(Cl)c(O)c2ccccc2c1O)N=Nc1c(Cl)c(O)c2ccccc2c1O
inactive: [1] 118 % of control | [2] 101 % of control | [3] 103 % of control

Cc1cc(=O)n(CC(=O)O)c2ccccc12
inactive: dose: 50.0 mg/kg/injection, schedule: Q04DX003 (ip), vehicle: Klucel (hydroxypropylcellulose) (HPC) 88 % of control | [4] 100 % of control | [5] 90 % of control | [6] 100 % of control | [7] 98 % of control

CCOP(=[Se])(OCC)OCC
inactive: dose: 12.5 mg/kg/injection, schedule: Q01DX009 (ip), vehicle: saline with Tween-80 91 % of control | dose: 25.0 mg/kg/injection, schedule: Q01DX009 (ip), vehicle: saline with Tween-80 107 % of control | [8] 88 % of control

C=CCCC1(CCC)C(=O)NC(=O)NC1=O
inactive: dose: 75.0 mg/kg/injection, schedule: Q01DX001 (ip), vehicle: saline 103 % of control | dose: 150.0 mg/kg/injection, schedule: Q01DX001 (ip), vehicle: saline 113 % of control | dose: 300.0 mg/kg/injection, schedule: Q01DX001 (ip), vehicle: saline 101 % of control

Cc1cn(C2OC(CO)C(O[Si](C)(C)C)C(O[Si](C)(C)C)C2O[Si](C)(C)C)c(=O)[nH]c1=O (stereo unspecified)
inactive: [4] 97 % of control | [6] 94 % of control | [7] 97 % of control

Cc1ccc(S(=O)(=O)NC(N)=NCCCC(NC(=O)OC(C)(C)C)C(=O)O)cc1 (stereo unspecified)
inactive: [9] 89 % of control | [10] 86 % of control | [11] 86 % of control

CC(=O)C(C)(NCc1ccccc1)c1ccccc1 (stereo unspecified)
inactive: dose: 50.0 mg/kg/injection, schedule: Q04DX003 (ip), vehicle: saline 97 % of control | [12] 95 % of control | [13] 97 % of control | [14] 93 % of control | [15] 102 % of control | [16] 87 % of control

Cc1ccc(S(=O)(=O)N/N=C/c2cccs2)cc1
inactive: [9] 90 % of control | [17] 98 % of control | [10] 88 % of control | [18] 98 % of control | [11] 91 % of control | [19] 109 % of control

COc1ccc(OC)c(/C=N/NC(=O)c2ccccc2Cl)c1
inactive: [8] 91 % of control | [9] 97 % of control | [10] 94 % of control

O=S(=O)(c1ccc(N=Nc2ncc[nH]2)cc1)N(CCCl)CCCl
inactive: [8] 90 % of control | [9] 94 % of control | [10] 90 % of control

Cc1ccc(Br)c(Br)c1
inactive: dose: 50.0 mg/kg/injection, schedule: Q01DX009 (ip), vehicle: saline 97 % of control | dose: 100.0 mg/kg/injection, schedule: Q01DX009 (ip), vehicle: saline 87 % of control | dose: 200.0 mg/kg/injection, schedule: Q01DX009 (ip), vehicle: saline 111 % of control

COc1ccc(-c2sc(/N=C/c3cccs3)c(C#N)c2C)cc1OC
inactive: [20] 94 % of control | [21] 95 % of control | dose: 400.0 mg/kg/injection, schedule: Q01DX009 (ip), vehicle: Klucel (hydroxypropylcellulose) (HPC) 97 % of control

CCC(CO)NC(=O)/C=C/c1cccc(Br)c1 (stereo unspecified)
inactive: [12] 102 % of control | [14] 103 % of control | [16] 96 % of control

C/C(=C\C(=O)/C=C(\C)NCc1ccccc1)NCc1ccccc1
inactive: [5] 98 % of control | [22] 100 % of control | dose: 400.0 mg/kg/injection, schedule: Q04DX003 (ip), vehicle: Klucel (hydroxypropylcellulose) (HPC) 93 % of control

Nc1c(Br)cc(Br)c2c1-c1ccccc1C2=O
inactive: [1] 98 % of control | [2] 104 % of control | [3] 102 % of control

O=[N+]([O-])c1ccc(/C=N/c2oc(-c3ccc([N+](=O)[O-])cc3)nc2SCc2ccccc2)cc1
inactive: dose: 50.0 mg/kg/injection, schedule: Q04DX002 (ip), vehicle: Klucel (hydroxypropylcellulose) (HPC) 100 % of control | [23] 100 % of control | [24] 116 % of control

CCOC(=O)/C=C(C)/C=C/C1=C(C)CCCC1(C)C
inactive: [17] 102 % of control | [18] 96 % of control | [19] 108 % of control

Nc1cc(S(=O)(=O)F)cc(Cl)c1O
inactive: [20] 105 % of control | [21] 103 % of control

CC(C)=CCn1c(=O)c2c(ncn2C)n(C)c1=O
inactive: [17] 98 % of control | [18] 98 % of control

CC[N+](C)(C)CCOC(=O)C1C2CC3OC(=O)C1C3C2 (stereo unspecified)
inactive: [13] 97 % of control | [15] 101 % of control

O=C1c2cc(Br)ccc2-c2cc(Br)c(NC(=O)C(F)(F)F)c(Br)c21
inactive: [1] 92 % of control | [2] 108 % of control | [3] 99 % of control

COc1ccc(C=O)cc1OCc1ccccc1
inactive: dose: 100.0 mg/kg/injection, schedule: Q01DX009 (ip), vehicle: water 96 % of control | dose: 100.0 mg/kg/injection, schedule: Q04DX003 (ip), vehicle: water 100 % of control | dose: 200.0 mg/kg/injection, schedule: Q01DX009 (ip), vehicle: water 96 % of control | dose: 200.0 mg/kg/injection, schedule: Q04DX003 (ip), vehicle: water 96 % of control | dose: 400.0 mg/kg/injection, schedule: Q01DX009 (ip), vehicle: water 102 % of control | dose: 400.0 mg/kg/injection, schedule: Q04DX003 (ip), vehicle: water 100 % of control

O=[N+]([O-])c1cc(N(c2ccccc2)c2ccccc2)cc([N+](=O)[O-])c1
inactive: [1] 103 % of control | [2] 108 % of control | [3] 103 % of control

C=CCC(O)CCCCC (stereo unspecified)
inactive: dose: 50.0 mg/kg/injection, schedule: Q01DX001 (ip), vehicle: carboxymethylcellulose (CMC) 101 % of control | [1] 92 % of control | [2] 97 % of control | [3] 106 % of control

CC(C)(C#N)C(C)(C)c1cnc2ccccc2c1
inactive: [5] 96 % of control | [22] 101 % of control

Cc1cc([N+](=O)[O-])c(Nc2ccc(C)c(Cl)c2)c([N+](=O)[O-])c1
inactive: [23] 93 % of control | [24] 91 % of control | dose: 400.0 mg/kg/injection, schedule: Q04DX002 (ip), vehicle: Klucel (hydroxypropylcellulose) (HPC) 96 % of control

CCc1ccc(NC(=S)Nc2ccccc2)cc1
inactive: dose: 100.0 mg/kg/injection, schedule: Q04DX002 (ip), vehicle: other 108 % of control | dose: 200.0 mg/kg/injection, schedule: Q04DX002 (ip), vehicle: other 90 % of control

CN(C)CCN1C(=O)c2ccc3c4c(ccc(c24)C1=O)C(=O)N(CCN(C)C)C3=O
inactive: dose: 50.0 mg/kg/injection, schedule: Q01DX001 (ip), vehicle: Klucel (hydroxypropylcellulose) (HPC) 96 % of control | dose: 100.0 mg/kg/injection, schedule: Q01DX001 (ip), vehicle: Klucel (hydroxypropylcellulose) (HPC) 94 % of control | dose: 200.0 mg/kg/injection, schedule: Q01DX001 (ip), vehicle: Klucel (hydroxypropylcellulose) (HPC) 89 % of control
